By IC50 is commonly meant the point on the concentration scale where inhibition reaches its midpoint.

These results are taken from patent US12637427B2, “ALDH-2 inhibitor compounds and methods of use” (Amygdala Neurosciences, Inc., priority 2022, dated 2026).

Test [1] has as its target T1, recombinant human ALDH-2 (Homo sapiens, UniProt P05091).
T1 sequence (P05091 18-517): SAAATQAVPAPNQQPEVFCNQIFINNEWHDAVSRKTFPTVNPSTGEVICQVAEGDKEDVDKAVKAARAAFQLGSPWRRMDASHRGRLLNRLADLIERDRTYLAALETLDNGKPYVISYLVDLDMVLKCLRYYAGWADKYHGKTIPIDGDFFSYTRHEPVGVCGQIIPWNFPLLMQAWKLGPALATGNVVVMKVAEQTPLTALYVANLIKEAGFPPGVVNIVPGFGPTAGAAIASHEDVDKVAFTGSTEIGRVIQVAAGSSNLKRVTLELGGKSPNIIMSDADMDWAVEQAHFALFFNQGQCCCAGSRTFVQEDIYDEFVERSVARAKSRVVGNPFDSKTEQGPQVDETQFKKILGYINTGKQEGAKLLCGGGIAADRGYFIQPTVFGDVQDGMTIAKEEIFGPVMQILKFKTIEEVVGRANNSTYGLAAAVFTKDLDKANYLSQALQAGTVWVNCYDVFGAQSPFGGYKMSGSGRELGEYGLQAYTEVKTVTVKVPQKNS
In words: ALDH-2 inhibition assay. The settings on record: 60 min pre-incubation; 10 μM = highest concentration tested; read-out: Enzymatic Assays IC50 ALDH2. Type of test: biochemical.
Method: A. ALDH-2 inhibition assay: The ALDH-2 reaction mixture used in the assay contained 125 μM formaldehyde, 75 μM NAD+, 20 mM NaCl, 10 mM MgCl2, and 20 nM recombinant human ALDH-2 in 50 mM Hepes buffer, pH 7.5 in a final volume of 10 μL using 384-well Corning 3820 plates. After 60 min of pre-incubation of the test ALDH-2 inhibitor compound with ALDH-2, the reaction was started by adding NAD+ and formaldehyde and the assay reaction mixture was allowed to proceed for 60 minutes. Activity of the ALDH-2 enzyme was determined by monitoring NADH formation using Perkin-Elmer Envision Reader with excitation and emission wavelengths set at 340 and 460 nm, respectively.

Test [2] has as its target T2, recombinant human ALDH-1 (Homo sapiens, UniProt P00352).
T2 sequence (P00352 1-501): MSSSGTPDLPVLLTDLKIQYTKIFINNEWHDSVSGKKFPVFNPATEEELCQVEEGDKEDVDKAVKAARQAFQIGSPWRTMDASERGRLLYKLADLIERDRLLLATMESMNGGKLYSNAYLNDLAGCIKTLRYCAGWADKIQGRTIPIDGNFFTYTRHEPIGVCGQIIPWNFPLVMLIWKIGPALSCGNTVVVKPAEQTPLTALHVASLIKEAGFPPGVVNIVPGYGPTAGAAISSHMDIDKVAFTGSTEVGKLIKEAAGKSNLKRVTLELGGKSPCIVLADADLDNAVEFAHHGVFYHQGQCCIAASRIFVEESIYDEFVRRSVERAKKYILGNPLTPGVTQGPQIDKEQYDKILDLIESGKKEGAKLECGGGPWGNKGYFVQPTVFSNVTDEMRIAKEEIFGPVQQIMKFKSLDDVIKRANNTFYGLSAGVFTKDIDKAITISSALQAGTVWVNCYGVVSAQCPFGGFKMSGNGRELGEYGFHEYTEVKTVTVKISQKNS
Nature of the test: ALDH-1 inhibition assay. The test is classed as biochemical. The settings on record: 60 min pre-incubation; 10 μM = highest concentration tested; read-out: Enzymatic Assays IC50 ALDH-1.
Method: B. ALDH-1 inhibition assay: The ALDH-1 reaction mixture used in the assay contained 100 μM formaldehyde, 2.5 mM NAD+, 20 mM NaCl, 10 mM MgCl2, 1 mM dithiothreitol (DTT; reducing agent), and 50 nM recombinant human ALDH-1 in 50 mM Hepes buffer, pH 7.5 in a final volume of 10 μL using 384-well Corning 3820 plates. After 60 min of pre-incubation of the test ALDH-2 inhibitor compound with ALDH-1, the reaction was started by adding NAD+ and formaldehyde and the assay reaction mixture was allowed to proceed for 60 minutes. Activity of the ALDH-1 enzyme was determined by monitoring NADH formation using Perkin-Elmer Envision Reader with excitation and emission wavelengths set at 340 and 460 nm, respectively.

As to `Cc1cccc(Cl)c1C(=O)NCc1ccc(-c2cccc(=O)[nH]2)nc1` [(1k), 2-Chloro-6-methyl-N-((6′-oxo-1′,6′-dihydro-[2,2′-bipyridin]-5-yl)methyl)benzamide], the IC50 in test [1] is 10 nM; in test [2] it was over 10 µM.
Taken in the same sequence, the figures for `Cc1nccc(Br)c1C(=O)NCc1ccc(-c2[nH]c(=O)ccc2F)cc1` [(1g), 4-Bromo-N-(4-(3-fluoro-6-oxo-1,6-dihydropyridin-2-yl)benzyl)-2-methylnicotinamide] were 28 nM and over 10 µM.
Taken in the same sequence, the figures for `O=C(NCc1ccc(-c2cccc(=O)[nH]2)cc1)c1ccccc1Cl` [(1b), 2-Chloro-N-(4-(6-oxo-1,6-dihydropyridin-2-yl)benzyl)benzamide] were 137 nM and over 10 µM.
Turning to `O=C(NCc1ccc(-c2cccc(=O)[nH]2)nc1)c1ccccc1Cl` [(1l), 2-chloro-N-((6′-oxo-1′,6′-dihydro-[2,2′-bipyridin]-5-yl)methyl)benzamide], the IC50 was 118 nM in test [1] and over 10 µM in test [2].
The like results for `Cc1cccc(Cl)c1C(=O)NCc1ccc(-c2cccc(=O)[nH]2)cc1` [(1a), 2-Chloro-6-methyl-N-(4-(6-oxo-1,6-dihydropyridin-2-yl)benzyl)benzamide] were, in that order, 78 nM and over 10 µM.
In the case of `Cc1nccc(Cl)c1C(=O)NCc1ccc(-c2cccc(=O)[nH]2)cc1` [(1c), 4-Chloro-2-methyl-N-(4-(6-oxo-1,6-dihydropyridin-2-yl)benzyl)nicotinamide], the values for the IC50 in test [1] and in test [2] were 128 nM and over 10 µM, respectively.
